Measurements taken from patent US20140335021A1, “Ocular Neostigmine Drops for Diagnosing Myasthenia Gravis” (priority 2013, published 2014).

Legend:
[1] = system: New Zealand White rabbits; assay: Pupillary size after ocular instillation of neostigmine solution in rabbits; type: in vivo, rabbit; settings: for mean [SD] pupillary size, right eye: saline left eye 7.0 mm, p=0.0001
Procedure: (§1) 2) experiments in which the standard IV neostigmine solution was instilled into both eyes of patients with probable or definite symptomatic MG.
(§2) Both sets of experiments used the standard neostigmine (2.5 mg/ml) solution available in hospitals for anesthetic/surgical use for reversal of neuromuscular block. This solution is buffered and FDA-approved for use in humans. In both sets of experiments, one drop of this solution was used in an eye, limiting substantially the amount of drug that might be absorbed systemically.
Male New Zealand White rabbits (2.5-3.0 kg body weight) were used in all experiments. The animals were kept in a room of controlled room temperature (24.0+1.0° C.) and humidity and a fixed dark light cycle (light on at 7:00 am and off at 19:00 pm).
The sterile neostigmine solution (2.5 mg/ml) was instilled into the right eye (one drop), while the control eye (left eye) received one drop of sterile saline (0.9% sodium chloride). Assessment of pupillary size was done at 30 minute intervals following instillation of neostigmine. The left eye of each rabbit acted as control for the right one.
The amount of neostigmine methylsulphate was calculated to be 0.1 mg/drop. Therefore, each rabbit's eye was instilled by 0.1 mg of sterile neostigmine methylsulphate. The sterile dropper for instilling neostigmine was used only once and then discarded. To prevent the drop of neostigmine from leaking out of the rabbit's eye, the lower eye lid of the rabbits was held out for at least 2-3 minutes in order to keep the drop inside the eye and allow for better absorption of the drug through the cornea.
(§3) The pupil size of both the right and left eyes of each rabbit was measured at baseline in mms by using a plastic ruler. After instilling the neostigmine solution (right eye) or saline (left eye), the pupil size was measured again at 30 minute intervals following drug or saline instillation. One drop of neostimine was instilled daily for 7 days and signs of ocular inflammation were observed.
The mean values for the pupil sizes of the right eyes were recorded as well as those of the left eyes, separately. Paired t-test was used for comparison of data among the different groups on SPSS software. A probability value of <0.05 was considered to be significant.

[2] = system: New Zealand White rabbits; assay: Ocular inflammation on daily instillation for 7 days in rabbits; type: in vivo; settings: one drop daily for 7 days, rabbit eye
Procedure: as §1, §3

[3] = system: patients with probable or definite MG; assay: Ocular neostigmine drop test for ptosis in patients with probable or definite myasthenia gravis; type: in vivo, human
Procedure: as §1, §2
Patients with probable or definite MG were asked to sign informed consent approved by the appropriate Institutional Ethics Committees. Ptosis was recorded photographically, and pulse and blood pressure were also recorded prior to beginning the test. One drop of standard IV neostigmine solution (2.5 mg/ml) was instilled into each symptomatic eye of the patient. Fifteen minutes later, possible changes in ptosis were assessed. Pulse and blood pressure was recorded again and after another 15 minutes. At 30 minutes, the patient was evaluated also for possible changes in ptosis (documented by photography), obvious irritation of either eye and for report of discomfort.
Six patients (3 males and 3 females) who presented with ptosis and/or ocular motility disturbance were enrolled in the study. Their ages ranged between 4.5 and 55 years (median=42 years, mean=36.4 years). […]

SMILES: CN(C)C(=O)Oc1cccc([N+](C)(C)C)c1 [neostigmine, 3-(trimethylamino)phenyl N,N-dimethylcarbamate]
- pupil diameter, right eye, representative rabbit (FIG. 2) ([1]; 1 week after daily instillation of 1 drop, last drop 24 hours previously): 6.0 mm
- pupil diameter, right eye, representative rabbit (FIG. 2) ([1]; 30 mins post neostigmine, pre 6.0 mm): 2.0 mm
- mean [SD] pupillary size, right eye ([1]; 30 minutes after one drop of 2.5 mg/ml solution (0.1 mg) in right eye, 30 rabbits): 4.8 mm
- pupil diameter, right eye, representative rabbit (FIG. 2) ([1]; 60 mins post neostigmine, pre 6.0 mm): 1.5 mm
- mean [SD] pupillary size, right eye ([1]; 60 minutes after one drop of 2.5 mg/ml solution (0.1 mg) in right eye): 4.8 mm
- ocular inflammation [2]: no ocular inflammation
- response of ptosis (palpebral fissure height) ([3]; 3 patients with no prior treatment for MG (Patients 1, 2 and 5)): dramatic
- increase of the palpebral fissure height ([3]; all 6 patients with MG, 30 minutes after instillation of one drop 2.5 mg/ml per symptomatic eye): at least 2 mm
